According to ChEMBL document CHEMBL5442219:

Legend:
Settings in all cases: Compound concentration 10 µM
[1] = biological target: T1, Alpha-2C adrenergic receptor (Homo sapiens) (UniProt P18825)
T1 sequence (whole entry): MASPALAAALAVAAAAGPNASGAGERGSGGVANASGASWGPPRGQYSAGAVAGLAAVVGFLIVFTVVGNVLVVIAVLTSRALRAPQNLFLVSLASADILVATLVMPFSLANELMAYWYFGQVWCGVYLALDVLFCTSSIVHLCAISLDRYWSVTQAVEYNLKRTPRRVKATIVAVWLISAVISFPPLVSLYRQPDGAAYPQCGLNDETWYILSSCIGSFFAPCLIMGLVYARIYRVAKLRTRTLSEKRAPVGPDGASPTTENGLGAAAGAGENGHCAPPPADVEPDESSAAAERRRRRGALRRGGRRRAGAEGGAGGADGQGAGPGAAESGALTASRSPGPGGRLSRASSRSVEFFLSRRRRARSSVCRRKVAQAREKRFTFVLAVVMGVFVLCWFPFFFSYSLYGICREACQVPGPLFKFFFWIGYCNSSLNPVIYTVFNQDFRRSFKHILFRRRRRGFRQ

[2] = biological target: D(1A) dopamine receptor (Homo sapiens) (UniProt P21728)
[3] = biological target: D(2) dopamine receptor (Homo sapiens) (UniProt P14416)
[4] = biological target: D(3) dopamine receptor (Homo sapiens) (UniProt P35462)
[5] = biological target: D(1B) dopamine receptor (Homo sapiens) (UniProt P21918)
[6] = biological target: T2, 5-hydroxytryptamine receptor 1A (Homo sapiens) (UniProt P08908)
T2 sequence (whole entry): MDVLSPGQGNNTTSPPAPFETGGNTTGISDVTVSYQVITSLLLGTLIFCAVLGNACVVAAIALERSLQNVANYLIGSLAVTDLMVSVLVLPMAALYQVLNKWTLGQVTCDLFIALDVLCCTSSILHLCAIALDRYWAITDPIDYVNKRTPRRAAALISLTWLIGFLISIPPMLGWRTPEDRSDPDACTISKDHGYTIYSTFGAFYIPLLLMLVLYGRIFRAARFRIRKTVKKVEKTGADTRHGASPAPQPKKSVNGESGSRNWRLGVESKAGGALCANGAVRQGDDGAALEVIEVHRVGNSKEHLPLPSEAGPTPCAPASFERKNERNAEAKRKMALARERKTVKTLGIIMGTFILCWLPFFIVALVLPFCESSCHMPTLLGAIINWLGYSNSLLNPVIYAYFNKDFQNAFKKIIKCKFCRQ

[7] = biological target: 5-hydroxytryptamine receptor 1B (Homo sapiens) (UniProt P28222)
[8] = biological target: 5-hydroxytryptamine receptor 1E (Homo sapiens) (UniProt P28566)
[9] = biological target: 5-hydroxytryptamine receptor 2A (Homo sapiens) (UniProt P28223)
[10] = biological target: 5-hydroxytryptamine receptor 6 (Homo sapiens) (UniProt P50406)
[11] = biological target: 5-hydroxytryptamine receptor 7 (Homo sapiens) (UniProt P34969)
[12] = biological target: Delta-type opioid receptor (Homo sapiens) (UniProt P41143)
[13] = biological target: Translocator protein (Homo sapiens) (UniProt P30536)
[14] = biological target: T3, Alpha-2A adrenergic receptor (Homo sapiens) (UniProt P08913)
T3 sequence (whole entry): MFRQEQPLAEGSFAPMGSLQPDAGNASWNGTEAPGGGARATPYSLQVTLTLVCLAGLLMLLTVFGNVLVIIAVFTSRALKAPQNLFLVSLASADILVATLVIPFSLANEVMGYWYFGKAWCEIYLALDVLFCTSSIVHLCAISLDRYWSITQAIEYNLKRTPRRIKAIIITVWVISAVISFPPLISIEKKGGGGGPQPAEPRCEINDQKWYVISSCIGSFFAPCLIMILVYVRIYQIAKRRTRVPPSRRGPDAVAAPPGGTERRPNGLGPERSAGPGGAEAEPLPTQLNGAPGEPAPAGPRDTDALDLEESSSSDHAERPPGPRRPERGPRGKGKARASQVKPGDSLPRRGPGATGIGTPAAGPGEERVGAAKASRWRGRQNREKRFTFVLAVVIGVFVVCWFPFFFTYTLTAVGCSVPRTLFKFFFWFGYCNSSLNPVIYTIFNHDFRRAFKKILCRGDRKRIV

[15] = biological target: Beta-2 adrenergic receptor (Homo sapiens) (UniProt P07550)
[16] = biological target: Histamine H4 receptor (Homo sapiens) (UniProt Q9H3N8)
[17] = biological target: Sigma intracellular receptor 2 (Homo sapiens) (UniProt Q5BJF2)
[18] = biological target: T4, Muscarinic acetylcholine receptor M5 (Homo sapiens) (UniProt P08912)
T4 sequence (whole entry): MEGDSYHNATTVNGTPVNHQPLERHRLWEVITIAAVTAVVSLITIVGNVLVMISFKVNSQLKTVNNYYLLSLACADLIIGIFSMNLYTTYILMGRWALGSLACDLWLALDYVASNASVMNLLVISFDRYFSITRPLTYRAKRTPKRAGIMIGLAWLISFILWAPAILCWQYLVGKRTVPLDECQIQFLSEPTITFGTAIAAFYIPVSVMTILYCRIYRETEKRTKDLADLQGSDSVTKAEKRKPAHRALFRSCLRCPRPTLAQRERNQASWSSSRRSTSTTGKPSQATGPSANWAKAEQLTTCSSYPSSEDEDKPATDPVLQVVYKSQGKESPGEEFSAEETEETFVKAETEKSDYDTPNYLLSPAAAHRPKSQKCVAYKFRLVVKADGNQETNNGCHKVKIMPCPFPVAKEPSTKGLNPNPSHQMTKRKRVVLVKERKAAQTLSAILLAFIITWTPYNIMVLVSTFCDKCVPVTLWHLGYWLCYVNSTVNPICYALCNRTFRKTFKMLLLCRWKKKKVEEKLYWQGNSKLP

[19] = biological target: 5-hydroxytryptamine receptor 1D (Homo sapiens) (UniProt P28221)
[20] = biological target: Sodium-dependent noradrenaline transporter (Homo sapiens) (UniProt P23975)
Sodium-dependent noradrenaline transporter (Homo sapiens), sequence (P23975 whole entry): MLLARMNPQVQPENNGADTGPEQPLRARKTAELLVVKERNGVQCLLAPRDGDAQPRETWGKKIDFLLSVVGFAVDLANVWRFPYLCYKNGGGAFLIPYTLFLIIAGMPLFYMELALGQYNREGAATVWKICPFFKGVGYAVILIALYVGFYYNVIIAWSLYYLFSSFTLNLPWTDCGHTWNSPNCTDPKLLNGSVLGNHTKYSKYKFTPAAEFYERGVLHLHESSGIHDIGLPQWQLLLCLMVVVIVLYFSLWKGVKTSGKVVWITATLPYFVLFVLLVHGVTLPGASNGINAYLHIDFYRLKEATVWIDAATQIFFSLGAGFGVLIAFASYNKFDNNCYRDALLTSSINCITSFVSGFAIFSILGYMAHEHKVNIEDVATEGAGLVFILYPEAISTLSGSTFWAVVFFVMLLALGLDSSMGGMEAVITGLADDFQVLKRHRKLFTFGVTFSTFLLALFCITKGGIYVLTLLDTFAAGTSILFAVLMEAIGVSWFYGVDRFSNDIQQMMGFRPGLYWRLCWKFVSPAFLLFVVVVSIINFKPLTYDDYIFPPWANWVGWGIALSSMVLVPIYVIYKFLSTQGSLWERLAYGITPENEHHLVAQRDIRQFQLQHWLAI

D(3) dopamine receptor (Homo sapiens), sequence (P35462 whole entry): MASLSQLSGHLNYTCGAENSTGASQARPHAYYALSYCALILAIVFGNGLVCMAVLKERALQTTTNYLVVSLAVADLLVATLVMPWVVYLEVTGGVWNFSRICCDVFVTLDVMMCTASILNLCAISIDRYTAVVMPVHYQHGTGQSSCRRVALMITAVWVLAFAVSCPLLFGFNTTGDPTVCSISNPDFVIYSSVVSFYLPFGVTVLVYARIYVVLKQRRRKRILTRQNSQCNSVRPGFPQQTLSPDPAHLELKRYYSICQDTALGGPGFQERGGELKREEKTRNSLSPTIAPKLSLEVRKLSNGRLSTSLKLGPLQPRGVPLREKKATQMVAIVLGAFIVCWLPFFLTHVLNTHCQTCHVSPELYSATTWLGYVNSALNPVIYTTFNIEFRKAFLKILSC
5-hydroxytryptamine receptor 2A (Homo sapiens), sequence (P28223 whole entry): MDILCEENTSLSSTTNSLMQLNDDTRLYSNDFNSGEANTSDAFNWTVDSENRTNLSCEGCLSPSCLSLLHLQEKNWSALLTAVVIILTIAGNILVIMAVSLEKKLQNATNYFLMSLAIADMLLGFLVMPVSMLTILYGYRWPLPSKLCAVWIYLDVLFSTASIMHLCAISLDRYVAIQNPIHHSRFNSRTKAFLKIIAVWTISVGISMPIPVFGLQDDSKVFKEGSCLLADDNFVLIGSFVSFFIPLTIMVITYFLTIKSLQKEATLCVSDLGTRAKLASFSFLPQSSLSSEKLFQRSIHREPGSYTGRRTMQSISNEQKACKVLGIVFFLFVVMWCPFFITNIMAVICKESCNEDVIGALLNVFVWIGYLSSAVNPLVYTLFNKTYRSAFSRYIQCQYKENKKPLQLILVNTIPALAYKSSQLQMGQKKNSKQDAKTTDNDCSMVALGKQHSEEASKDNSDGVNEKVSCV
5-hydroxytryptamine receptor 1E (Homo sapiens), sequence (P28566 whole entry): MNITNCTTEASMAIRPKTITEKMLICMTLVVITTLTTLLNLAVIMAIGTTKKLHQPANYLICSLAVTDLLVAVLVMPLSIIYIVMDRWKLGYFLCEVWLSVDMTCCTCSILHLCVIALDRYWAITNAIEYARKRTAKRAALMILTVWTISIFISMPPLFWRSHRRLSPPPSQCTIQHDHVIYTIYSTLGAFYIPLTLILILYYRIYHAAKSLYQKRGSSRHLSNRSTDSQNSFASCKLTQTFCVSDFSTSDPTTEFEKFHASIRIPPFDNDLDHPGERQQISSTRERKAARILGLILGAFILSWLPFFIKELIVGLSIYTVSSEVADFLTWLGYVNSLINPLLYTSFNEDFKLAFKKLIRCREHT
5-hydroxytryptamine receptor 6 (Homo sapiens), sequence (P50406 whole entry): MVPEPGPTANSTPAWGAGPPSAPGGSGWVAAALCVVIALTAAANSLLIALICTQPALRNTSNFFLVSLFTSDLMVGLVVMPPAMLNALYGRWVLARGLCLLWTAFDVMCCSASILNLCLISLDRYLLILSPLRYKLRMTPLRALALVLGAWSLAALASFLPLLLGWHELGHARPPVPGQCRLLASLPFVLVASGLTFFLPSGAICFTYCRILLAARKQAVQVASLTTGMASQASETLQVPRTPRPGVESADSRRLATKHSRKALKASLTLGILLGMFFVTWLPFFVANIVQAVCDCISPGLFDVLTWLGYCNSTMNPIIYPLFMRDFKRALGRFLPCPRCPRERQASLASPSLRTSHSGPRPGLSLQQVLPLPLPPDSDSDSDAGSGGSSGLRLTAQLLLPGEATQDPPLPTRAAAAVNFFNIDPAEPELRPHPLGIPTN
D(1A) dopamine receptor (Homo sapiens), sequence (P21728 whole entry): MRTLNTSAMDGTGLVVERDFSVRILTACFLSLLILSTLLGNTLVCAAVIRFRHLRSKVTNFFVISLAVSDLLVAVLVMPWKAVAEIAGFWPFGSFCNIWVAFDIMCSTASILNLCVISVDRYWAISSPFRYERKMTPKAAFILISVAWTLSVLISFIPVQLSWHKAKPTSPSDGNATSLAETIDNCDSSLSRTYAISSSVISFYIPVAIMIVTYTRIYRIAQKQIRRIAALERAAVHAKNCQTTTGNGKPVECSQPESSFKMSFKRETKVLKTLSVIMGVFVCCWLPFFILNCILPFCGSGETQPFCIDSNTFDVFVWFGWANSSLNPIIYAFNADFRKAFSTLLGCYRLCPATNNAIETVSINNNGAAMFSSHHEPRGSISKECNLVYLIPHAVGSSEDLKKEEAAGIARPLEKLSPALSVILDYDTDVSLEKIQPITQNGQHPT
5-hydroxytryptamine receptor 1D (Homo sapiens), sequence (P28221 whole entry): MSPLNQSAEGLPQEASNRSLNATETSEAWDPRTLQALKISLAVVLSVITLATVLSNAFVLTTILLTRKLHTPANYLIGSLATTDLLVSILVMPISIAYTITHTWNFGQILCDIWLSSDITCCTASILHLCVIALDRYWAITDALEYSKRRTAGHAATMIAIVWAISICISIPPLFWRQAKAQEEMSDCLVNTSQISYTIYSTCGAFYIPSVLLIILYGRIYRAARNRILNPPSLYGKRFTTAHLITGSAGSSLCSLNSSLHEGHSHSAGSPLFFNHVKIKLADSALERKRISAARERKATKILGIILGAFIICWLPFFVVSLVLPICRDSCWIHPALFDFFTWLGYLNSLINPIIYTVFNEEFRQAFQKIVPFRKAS
Delta-type opioid receptor (Homo sapiens), sequence (P41143 whole entry): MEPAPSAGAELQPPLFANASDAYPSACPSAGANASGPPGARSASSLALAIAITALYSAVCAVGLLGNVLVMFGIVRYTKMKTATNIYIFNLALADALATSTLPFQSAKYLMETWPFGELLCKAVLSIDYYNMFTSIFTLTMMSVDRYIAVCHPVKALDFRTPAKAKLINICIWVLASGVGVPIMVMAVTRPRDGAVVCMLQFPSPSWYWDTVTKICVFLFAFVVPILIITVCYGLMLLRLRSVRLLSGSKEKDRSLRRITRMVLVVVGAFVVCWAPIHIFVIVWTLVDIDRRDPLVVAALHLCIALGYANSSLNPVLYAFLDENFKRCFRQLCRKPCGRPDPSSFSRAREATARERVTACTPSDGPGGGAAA
Beta-2 adrenergic receptor (Homo sapiens), sequence (P07550 whole entry, looked up): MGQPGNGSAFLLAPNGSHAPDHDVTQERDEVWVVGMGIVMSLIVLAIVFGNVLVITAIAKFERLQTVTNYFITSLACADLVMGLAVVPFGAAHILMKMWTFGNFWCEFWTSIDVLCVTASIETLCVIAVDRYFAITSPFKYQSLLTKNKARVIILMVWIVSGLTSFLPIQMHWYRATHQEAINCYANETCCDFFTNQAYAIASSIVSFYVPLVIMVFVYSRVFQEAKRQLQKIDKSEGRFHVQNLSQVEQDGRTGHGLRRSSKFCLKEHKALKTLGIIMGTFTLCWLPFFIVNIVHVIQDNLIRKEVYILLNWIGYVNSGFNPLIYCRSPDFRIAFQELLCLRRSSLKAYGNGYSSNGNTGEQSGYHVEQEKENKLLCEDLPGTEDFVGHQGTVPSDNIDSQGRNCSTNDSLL
Translocator protein (Homo sapiens), sequence (P30536 whole entry): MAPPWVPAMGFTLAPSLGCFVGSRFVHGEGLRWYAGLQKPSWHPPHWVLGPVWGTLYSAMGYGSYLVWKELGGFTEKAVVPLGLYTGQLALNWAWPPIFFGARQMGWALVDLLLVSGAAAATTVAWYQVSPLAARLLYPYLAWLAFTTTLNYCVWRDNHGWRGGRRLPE
5-hydroxytryptamine receptor 1B (Homo sapiens), sequence (P28222 whole entry): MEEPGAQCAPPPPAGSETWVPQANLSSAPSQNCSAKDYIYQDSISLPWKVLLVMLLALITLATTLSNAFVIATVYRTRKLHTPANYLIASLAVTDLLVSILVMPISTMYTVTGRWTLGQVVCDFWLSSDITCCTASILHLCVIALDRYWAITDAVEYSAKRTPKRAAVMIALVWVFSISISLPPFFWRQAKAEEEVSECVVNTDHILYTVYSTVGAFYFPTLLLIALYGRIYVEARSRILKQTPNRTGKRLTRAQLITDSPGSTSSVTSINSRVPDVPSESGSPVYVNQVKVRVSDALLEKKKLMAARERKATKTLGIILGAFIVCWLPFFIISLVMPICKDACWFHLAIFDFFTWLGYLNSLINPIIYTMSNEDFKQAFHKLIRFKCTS
D(1B) dopamine receptor (Homo sapiens), sequence (P21918 whole entry): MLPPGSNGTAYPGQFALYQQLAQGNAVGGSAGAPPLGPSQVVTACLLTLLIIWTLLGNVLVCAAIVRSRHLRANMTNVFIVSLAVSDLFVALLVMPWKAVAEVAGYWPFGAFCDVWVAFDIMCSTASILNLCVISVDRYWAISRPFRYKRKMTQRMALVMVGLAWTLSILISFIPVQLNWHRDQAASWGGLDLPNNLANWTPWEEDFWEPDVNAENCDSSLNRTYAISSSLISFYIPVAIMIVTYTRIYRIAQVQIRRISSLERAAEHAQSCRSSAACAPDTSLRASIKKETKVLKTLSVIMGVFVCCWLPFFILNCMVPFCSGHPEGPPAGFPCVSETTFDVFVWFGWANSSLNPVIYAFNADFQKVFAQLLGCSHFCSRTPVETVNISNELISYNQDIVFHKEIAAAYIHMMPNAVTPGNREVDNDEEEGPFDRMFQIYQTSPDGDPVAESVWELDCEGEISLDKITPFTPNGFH

| SMILES | inhibition [1] | inhibition [2] | inhibition [3] | inhibition [4] | inhibition [5] | inhibition [6] | inhibition [7] | inhibition [8] | inhibition [9] | inhibition [10] | inhibition [11] | inhibition [12] | inhibition [13] | inhibition [14] | inhibition [15] | inhibition [16] | inhibition [17] | inhibition [18] | inhibition [19] | inhibition [20] |
| --- | --- | --- | --- | --- | --- | --- | --- | --- | --- | --- | --- | --- | --- | --- | --- | --- | --- | --- | --- | --- |
| COc1cccc(-c2c(C)n(Cc3c(F)cccc3C(F)(F)F)c(=O)n(C[C@H](NCCCC(=O)O)c3ccccc3)c2=O)c1F | -3.99% | -9.59% | 30.2% | 21.6% | 0.96% | -2.18% | 15.5% | 11.7% | -2.02% | -1.04% | 34.2% | 7.27% | 15.8% | – | – | – | – | – | – | – |
| CC1=C2C[C@H]3[C@@H](CC=C4C[C@@H](O)CC[C@@]43C)[C@@H]2CC[C@]12O[C@@H]1C[C@H](C)CN[C@H]1[C@H]2C | – | -4.8% | 13.2% | 19.6% | 1.59% | 9.39% | – | 6.19% | 4.16% | – | – | -0.87% | 13.5% | -1.14% | 5.22% | -2.19% | 91.8% | – | – | – |
| O=C1O[C@]2(CC[C@H](C(=O)Nc3ccn(-c4ccccc4F)n3)CC2)c2cnccc21 | – | – | 10.1% | 73.2% | -8.27% | 19.7% | -3.32% | 5.31% | 22.2% | 0.42% | – | -5.86% | 1.2% | -9.69% | – | – | -5.33% | -6.98% | – | – |
| N#Cc1c(O)nc(SCc2cccc(F)c2F)nc1C1CC1 | 5.91% | -8.29% | -6.52% | 2.3% | 28.4% | -4.01% | -9.63% | -5.94% | -3.85% | 9.18% | – | 7.91% | 40.4% | – | 5.94% | 4.02% | 8.9% | – | 38.9% | -1.64% |
| CCOC(=O)c1cc(C#N)c(N2CCC(C(=O)NS(=O)(=O)Cc3ccccc3)CC2)nc1C | -0.84% | 0.26% | 13.7% | 50.8% | – | – | – | -8.79% | 5.11% | 9.24% | – | -8.38% | – | – | -1.62% | 6.28% | 4.45% | 28.6% | – | – |
| COc1ccc2cc(S(=O)(=O)N[C@H](CC(=O)N[C@H](Cc3ccc(CN4[C@H](C)CCC[C@@H]4C)cc3)C(=O)N(C)C(C)C)c3ccc4c(c3)OCO4)ccc2c1 | 71.8% | 11.7% | 2.14% | 26% | – | -7.48% | 31.1% | – | 28.8% | 4.73% | -0.02% | 8.79% | 0.6% | 39.4% | – | 9.34% | 97.7% | 52.8% | – | 25.7% |
| O=C(O)Cn1c(C(=O)Nc2nc(-c3ccccc3Cl)cs2)cc2ccccc21 | 0.91% | -2.06% | 14.1% | 7.11% | -2.39% | -8.88% | 11.2% | 3.11% | – | – | – | 19% | 20.4% | 8.83% | -7.21% | 13.6% | 36.6% | – | 38.3% | – |
| O=C1N/C(=N/c2ccccc2F)S/C1=C\c1ccc(C(=O)O)cc1 | 2.98% | – | 0.9% | 5.3% | 6.76% | 2.18% | -8.69% | 4.25% | -0.36% | 24.9% | – | -1.84% | 4.31% | – | 6.54% | -4.83% | 33.9% | – | 19% | 9.3% |
| CC(C)NC(=O)c1ccc(C#Cc2ccncc2)cn1 | – | – | -3.71% | 26.8% | – | – | – | -1.26% | 4.54% | -2.79% | – | -3.71% | – | – | -8.85% | -7.18% | 8.09% | 43.2% | – | – |
| CC(C)Oc1ccccc1C(=O)Nc1ccccc1C(=O)Nc1cccc(S(=O)(=O)C(F)(F)F)c1 | – | – | 7.06% | 23.1% | 4.49% | 6.76% | – | -4.72% | 87.8% | 36.8% | -3.5% | -2.57% | 66.1% | – | -8.68% | – | -6.23% | -4.83% | – | – |
| O=C(O)COc1cccc(CN(Cc2ccc(-n3cccn3)cc2)S(=O)(=O)c2cccnc2)c1 | -2.57% | – | 7.85% | 5.78% | 2.14% | -0.9% | 12.1% | 14.9% | 15.6% | -0.81% | – | 22.4% | 11.1% | -8.07% | -8.36% | -9.76% | 4.27% | -5.22% | – | – |
| C[C@]1(C(=O)N(CCCC(=O)O)Cc2cccc(Cl)c2)CCN1C(=O)c1csc2ccccc12 | – | -1.97% | -7.68% | 29% | -8.24% | – | – | -8.85% | 5.34% | 3.68% | – | -1.78% | 5.72% | 10.9% | – | 12.9% | -7.28% | -2.06% | – | – |
